Results reported in the supplement of paper PMC11061612.

How the values were obtained:
Test in all cases: Bliss excess, mean over the matrix (fraction); higher = more synergy
[1] = test system: KCL-22 (Chronic Myelogenous Leukemia)
Procedure, shortened: (§1)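 Bliss excess equals the observed combination effect minus the expected value EA + EB − EA·EB, where EA and EB are the effects of each agent alone. Combination Emax is the second-highest inhibition within the matrix. Inhibition was scaled from CellTiter-Glo 2.0 luminescence, with 0 set by vehicle wells and 1 by blank wells, after 72 hours of two-drug dosing of cells plated in 1536-well plates.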

[2] = test system: DiFi (Colorectal Carcinoma)
Procedure, shortened: as §1

[3] = test system: MOLT-16 (T-Lymphoblastic Leukemia)
Procedure, shortened: as §1

WM-115 (Melanoma) = test system: WM-115 (Melanoma)
Procedure, shortened: as §1

NCI-H2818 (Mesothelioma) = test system: NCI-H2818 (Mesothelioma)
Procedure, shortened: as §1

[4] = test system: COLO-678 (Colorectal Carcinoma)
Procedure, shortened: as §1

[5] = test system: BL-41 (Burkitt's Lymphoma)
Procedure, shortened: as §1

[6] = test system: SR (Other Blood Carcinomas)
Procedure, shortened: as §1

[7] = test system: SW837 (Colorectal Carcinoma)
Procedure, shortened: as §1

[8] = test system: EVSA-T (Breast Carcinoma)
Procedure, shortened: as §1

[9] = test system: GR-ST (B-Lymphoblastic Leukemia)
Procedure, shortened: as §1

[10] = test system: KARPAS-45 (T-Lymphoblastic Leukemia)
Procedure, shortened: as §1

[11] = test system: SW1417 (Colorectal Carcinoma)
Procedure, shortened: as §1

[12] = test system: HL-60 (Acute Myeloid Leukemia)
Procedure, shortened: as §1

[13] = test system: MS751 (Cervical Carcinoma)
Procedure, shortened: as §1

MEL-JUSO (Melanoma) = test system: MEL-JUSO (Melanoma)
Procedure, shortened: as §1

LN-18 (Glioblastoma) = test system: LN-18 (Glioblastoma)
Procedure, shortened: as §1

ES8 (Ewing's Sarcoma) = test system: ES8 (Ewing's Sarcoma)
Procedure, shortened: as §1

[14] = test system: TOV-112D (Ovarian Carcinoma)
Procedure, shortened: as §1

CN(C)CCCOc1ccc(-c2ccc3ncc4c(c3c2)n(C2CCOCC2)c(=O)n4C)cn1 [AZD0156] + C=CCn1c(=O)c2cnc(Nc3ccc(N4CCN(C)CC4)cc3)nc2n1-c1cccc(C(C)(C)O)n1 [AZD1775] (first compound max 1 µM, partner max 1 µM)
Bliss excess [1]: -0.0326
Bliss excess [2]: -0.0013
Bliss excess [3]: -0.0108
Bliss excess (WM-115 (Melanoma)): -0.0383
Bliss excess (NCI-H2818 (Mesothelioma)): -0.0556
Bliss excess [4]: -0.0197
Bliss excess [5]: 0.0047
Bliss excess [6]: -0.0509
Bliss excess [7]: -0.0431
Bliss excess [8]: -0.0618
Bliss excess [9]: -0.0229
Bliss excess [10]: -0.0182
Bliss excess [11]: -0.0213
Bliss excess [12]: -0.0177
Bliss excess [13]: -0.0154
Bliss excess (MEL-JUSO (Melanoma)): 0.0243
Bliss excess (LN-18 (Glioblastoma)): -0.0307
Bliss excess (ES8 (Ewing's Sarcoma)): -0.0464
Bliss excess [14]: 0.0039

CN(C)CCCOc1ccc(-c2ccc3ncc4c(c3c2)n(C2CCOCC2)c(=O)n4C)cn1 [AZD0156] + CCN(CCO)CCCOc1ccc2c(Nc3cc(CC(=O)Nc4cccc(F)c4)[nH]n3)ncnc2c1 [AZD2811] (first compound max 1 µM, 7x7, partner max 1 µM)
Bliss excess [1]: 0.0703
Bliss excess [2]: -0.0363
Bliss excess [3]: -0.0087
Bliss excess (WM-115 (Melanoma)): -0.0368
Bliss excess (NCI-H2818 (Mesothelioma)): -0.0491
Bliss excess [4]: -0.0179
Bliss excess [5]: 0.0177
Bliss excess [6]: -0.0666
Bliss excess [7]: -0.0263
Bliss excess [8]: 0.0104
Bliss excess [9]: 0.0033
Bliss excess [10]: -0.0515
Bliss excess [11]: -0.0418
Bliss excess [12]: -0.0762
Bliss excess [13]: -0.0235
Bliss excess (MEL-JUSO (Melanoma)): -0.0039
Bliss excess (LN-18 (Glioblastoma)): 0.0009
Bliss excess (ES8 (Ewing's Sarcoma)): -0.0153
Bliss excess [14]: -0.0025

CN(C)CCCOc1ccc(-c2ccc3ncc4c(c3c2)n(C2CCOCC2)c(=O)n4C)cn1 [AZD0156] + C[C@@H]1COCCN1C2=NC(=NC(=C2)C3(CC3)[S@](=N)(=O)C)C4=C5C=CNC5=NC=C4 [AZD6738] (first compound max 1 µM, 7x7, partner max 10 µM)
Bliss excess [1]: 0.0274
Bliss excess [2]: 0.0174
Bliss excess [3]: -0.0399
Bliss excess (WM-115 (Melanoma)): -0.0565
Bliss excess (NCI-H2818 (Mesothelioma)): -0.0511
Bliss excess [4]: -0.0169
Bliss excess [5]: 0.0704
Bliss excess [6]: 0.015
Bliss excess [7]: 0.0071
Bliss excess [8]: 0.0081
Bliss excess [9]: -0.0006
Bliss excess [10]: 0.0333
Bliss excess [11]: -0.0019
Bliss excess [12]: -0.0159
Bliss excess [13]: -0.0221
Bliss excess (MEL-JUSO (Melanoma)): 0.0108
Bliss excess (LN-18 (Glioblastoma)): 0.0505
Bliss excess (ES8 (Ewing's Sarcoma)): 0.0169
Bliss excess [14]: 0.0136

C=CCn1c(=O)c2cnc(Nc3ccc(N4CCN(C)CC4)cc3)nc2n1-c1cccc(C(C)(C)O)n1 [AZD1775] + C[C@@H]1COCCN1C2=NC(=NC(=C2)C3(CC3)[S@](=N)(=O)C)C4=C5C=CNC5=NC=C4 [AZD6738] (first compound max 1 µM, partner max 10 µM)
Bliss excess [1]: 0.0331
Bliss excess [2]: 0.0242
Bliss excess [3]: 0.0101
Bliss excess (WM-115 (Melanoma)): -0.0523
Bliss excess (NCI-H2818 (Mesothelioma)): -0.0577
Bliss excess [4]: -0.028
Bliss excess [5]: 0.0369
Bliss excess [6]: 0.0174
Bliss excess [7]: 0.0057
Bliss excess [8]: 0.033
Bliss excess [9]: -0.0217
Bliss excess [10]: 0.0465
Bliss excess [11]: -0.0253
Bliss excess [12]: 0.0975
Bliss excess [13]: 0.0075
Bliss excess (MEL-JUSO (Melanoma)): 0.0009
Bliss excess (LN-18 (Glioblastoma)): 0.086
Bliss excess (ES8 (Ewing's Sarcoma)): 0.0178
Bliss excess [14]: 0.0714

C=CCn1c(=O)c2cnc(Nc3ccc(N4CCN(C)CC4)cc3)nc2n1-c1cccc(C(C)(C)O)n1 [AZD1775] + O=C(c1cc(Cc2n[nH]c(=O)c3ccccc23)ccc1F)N1CCN(C(=O)C2CC2)CC1 [Olaparib] (first compound max 1 µM, partner max 10 µM)
Bliss excess [1]: -0.0415
Bliss excess [2]: -0.0145
Bliss excess [3]: 0.0004
Bliss excess (WM-115 (Melanoma)): -0.0169
Bliss excess (NCI-H2818 (Mesothelioma)): 0.0324
Bliss excess [4]: -0.012
Bliss excess [5]: -0.0211
Bliss excess [6]: 0.0597
Bliss excess [7]: -0.0125
Bliss excess [8]: 0.0622
Bliss excess [9]: -0.0334
Bliss excess [10]: -0.0302
Bliss excess [11]: -0.0605
Bliss excess [12]: -0.0554
Bliss excess [13]: -0.0021
Bliss excess (MEL-JUSO (Melanoma)): -0.0523
Bliss excess (LN-18 (Glioblastoma)): -0.037
Bliss excess (ES8 (Ewing's Sarcoma)): 0.0059
Bliss excess [14]: -0.0139

CCN(CCO)CCCOc1ccc2c(Nc3cc(CC(=O)Nc4cccc(F)c4)[nH]n3)ncnc2c1 [AZD2811] + C=CCn1c(=O)c2cnc(Nc3ccc(N4CCN(C)CC4)cc3)nc2n1-c1cccc(C(C)(C)O)n1 [AZD1775] (first compound max 1 µM, partner max 1 µM)
Bliss excess [1]: 0.0162
Bliss excess [2]: 0.0322
Bliss excess [3]: -0.0255
Bliss excess (WM-115 (Melanoma)): -0.0562
Bliss excess (NCI-H2818 (Mesothelioma)): -0.0461
Bliss excess [4]: -0.0002
Bliss excess [5]: 0.0862
Bliss excess [6]: -0.0146
Bliss excess [7]: 0.0033
Bliss excess [8]: -0.0073
Bliss excess [9]: -0.0338
Bliss excess [10]: -0.0766
Bliss excess [11]: -0.0654
Bliss excess [12]: -0.0445
Bliss excess [13]: 0.0461
Bliss excess (MEL-JUSO (Melanoma)): 0.0131
Bliss excess (LN-18 (Glioblastoma)): 0.0214
Bliss excess (ES8 (Ewing's Sarcoma)): -0.0218
Bliss excess [14]: 0.105

CCN(CCO)CCCOc1ccc2c(Nc3cc(CC(=O)Nc4cccc(F)c4)[nH]n3)ncnc2c1 [AZD2811] + C[C@@H]1COCCN1C2=NC(=NC(=C2)C3(CC3)[S@](=N)(=O)C)C4=C5C=CNC5=NC=C4 [AZD6738] (first compound max 1 µM, 7x7, partner max 10 µM)
Bliss excess [1]: 0.0285
Bliss excess [2]: -0.0331
Bliss excess [3]: -0.0021
Bliss excess (WM-115 (Melanoma)): -0.0345
Bliss excess (NCI-H2818 (Mesothelioma)): -0.0925
Bliss excess [4]: -0.0034
Bliss excess [5]: -0.0647
Bliss excess [6]: -0.0533
Bliss excess [7]: -0.0252
Bliss excess [8]: -0.0263
Bliss excess [9]: -0.0298
Bliss excess [10]: -0.0944
Bliss excess [11]: -0.0709
Bliss excess [12]: -0.0776
Bliss excess [13]: 0.041
Bliss excess (MEL-JUSO (Melanoma)): -0.0644
Bliss excess (LN-18 (Glioblastoma)): -0.0151
Bliss excess (ES8 (Ewing's Sarcoma)): -0.0554
Bliss excess [14]: 0.0433

CCN(CCO)CCCOc1ccc2c(Nc3cc(CC(=O)Nc4cccc(F)c4)[nH]n3)ncnc2c1 [AZD2811] + O=C(c1cc(Cc2n[nH]c(=O)c3ccccc23)ccc1F)N1CCN(C(=O)C2CC2)CC1 [Olaparib] (first compound max 1 µM, 7x7, partner max 10 µM)
Bliss excess [1]: 0.0534
Bliss excess [2]: -0.0153
Bliss excess [3]: 0.0395
Bliss excess (WM-115 (Melanoma)): -0.0343
Bliss excess (NCI-H2818 (Mesothelioma)): -0.0415
Bliss excess [4]: -0.0223
Bliss excess [5]: -0.121
Bliss excess [6]: -0.0064
Bliss excess [7]: 0.0027
Bliss excess [8]: 0.0242
Bliss excess [9]: -0.0358
Bliss excess [10]: -0.115
Bliss excess [11]: -0.0456
Bliss excess [12]: -0.082
Bliss excess [13]: -0.0068
Bliss excess (MEL-JUSO (Melanoma)): -0.0015
Bliss excess (LN-18 (Glioblastoma)): -0.0299
Bliss excess (ES8 (Ewing's Sarcoma)): -0.0296
Bliss excess [14]: 0.0355
